27 molecules from patent publication USRE43343E1, “Inhibitors of histone deacetylase” (Methylgene Inc., priority 1999, dated 2012) can be followed below.

Test [1] concerns the target T1, recombinant human HDAC-1 enzyme (rHDAC-1) (Homo sapiens, UniProt Q13547).
T1 construct: made in house; host or cells: Baculovirus insect cell expression system
The test is described as follows: Histone deacetylase inhibition, recombinant human HDAC-1. It counts as biochemical. The conditions noted are these: cloned recombinant human HDAC-1 from Baculovirus insect cell expression system. As for the experimental part:
(§1) The reaction was stopped by adding acetic acid (0.04 M, final concentration) and HCl (250 mM, final concentration). The mixture was extracted with ethyl acetate and the released [^3H]-acetic acid was quantified by scintillation counting. For inhibition studies, the enzyme was preincubated with compounds at 4° C. for 30 minutes prior to initiation of the enzymatic assay. IC50 values for HDAC enzyme inhibitors were determined by performing dose response curves with individual compounds and determining the concentration of inhibitor producing fifty percent of the maximal inhibition.

The test system of test [2] is histone deacetylase in nuclear extracts from H446 cells (pooled HDACs). The test is described as follows: Histone deacetylase inhibition, H446 nuclear extracts (pooled HDACs). Format: biochemical, human. As to conditions: for pooled HDACs percent inhibition at the specified concentration: @ 20 μM; for IC50: [3H]-acetylated histone substrate. Here is the method:
as §1

T1 sequence (Q13547 whole entry): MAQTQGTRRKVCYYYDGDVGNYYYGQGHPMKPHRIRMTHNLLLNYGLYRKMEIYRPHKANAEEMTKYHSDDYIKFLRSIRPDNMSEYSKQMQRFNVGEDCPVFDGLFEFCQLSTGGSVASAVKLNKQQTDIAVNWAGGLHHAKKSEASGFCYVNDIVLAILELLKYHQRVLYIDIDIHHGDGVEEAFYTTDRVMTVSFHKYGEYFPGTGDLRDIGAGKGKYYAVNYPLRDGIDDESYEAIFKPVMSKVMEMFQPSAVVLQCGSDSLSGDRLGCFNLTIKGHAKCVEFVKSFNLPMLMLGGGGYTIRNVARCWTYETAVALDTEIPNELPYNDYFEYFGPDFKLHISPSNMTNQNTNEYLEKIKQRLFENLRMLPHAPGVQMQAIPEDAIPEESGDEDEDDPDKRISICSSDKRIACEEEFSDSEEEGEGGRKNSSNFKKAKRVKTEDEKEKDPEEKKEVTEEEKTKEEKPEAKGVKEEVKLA

Regarding `COc1ccc(NS(=O)(=O)c2ccc(/C=C/C(=O)Nc3ccccc3N)cc2)cc1OC` [Compound 118], in test [1], the IC50 turned out to be 2.3 µM.

Regarding `COc1ccc(S(=O)(=O)Nc2ccc(CCC(=O)Nc3ccccc3N)cc2)cc1OC` [Compound 121], the IC50 in test [1] was determined as 23 µM.

As to `COc1ccc(S(=O)(=O)Nc2ccc(/C=C/C(=O)Nc3ccccc3N)cc2)cc1` [Compound 122], the IC50 in test [1] was found to be 2.3 µM.

As to `O=C(C#Cc1ccc(NS(=O)(=O)c2ccc(-c3ccccc3)cc2)cc1)NO` [Compound 128], the IC50 in test [1] worked out at 0.3 µM.

Turning to `O=C(/C=C/c1ccc(CC(O)c2ccccc2)o1)NO` (stereo not drawn) [Compound 136], in test [1], the concentration for half-maximal inhibition (IC50) was 0.5 µM.

`Nc1ccccc1NC(=O)/C=C/c1ccc(CC(=O)c2ccccc2)o1` [Compound 139]: the “pooled HDACs percent inhibition at the specified concentration” value (shortened to “pooled HDACs percent inhibition”) in test [2] came out at 44% @ 20 μM.

As for `Nc1ccccc1NC(=O)CCc1ccc(CC(=O)c2ccccc2)o1` [Compound 144], the “pooled HDACs percent inhibition” value in test [2] worked out at 6% @ 20 μM. Besides, the IC50 in test [1] worked out at 6.9 µM.

Regarding `O=C(/C=C/c1ccc(NC(=O)Nc2cccc3ccccc23)cc1)NO` [Compound 146], the IC50 in test [1] was determined as 0.91 µM.

Regarding `COc1ccc(NC(=O)Nc2ccc(/C=C/C(=O)NO)cc2)cc1OC` [Compound 147], the half-inhibitory concentration (IC50) in test [1] was 0.48 µM.

Regarding `O=C(NO)c1ccc(CCCC(O)c2ccc3ccccc3c2)cc1` (stereo not drawn) [Compound 149], the “pooled HDACs percent inhibition” value in test [2] amounted to 8% @ 20 μM. The IC50 in test [1] was determined as 0.1 µM.

On to `O=C(NO)c1ccc(/C=C/c2ccccc2)cc1` [Compound 151], for which the half-inhibitory concentration (IC50) in test [1] is 2.3 µM.

For `O=C(NO)c1ccc(CCCCCc2ccccc2)cc1` [Compound 153], the IC50 in test [1] came to 4.8 µM.

For the molecule `O=C(CCc1ccc(CCCCc2ccccc2)cc1)NO` [Compound 154], the IC50 amounted to 2 µM in test [2] and 0.9 µM in test [1].

In the case of `O=C(CCCc1ccc(CCCc2ccccc2)cc1)NO` [Compound 155], the “pooled HDACs percent inhibition” value in test [2] was 39% @ 20 μM.

For the molecule `O=C(CCCc1ccc(CCCCc2ccccc2)cc1)NO` [Compound 156], the 50% inhibitory concentration (IC50) in test [1] is 0.75 µM.

For the molecule `O=C(CCc1ccc(CCc2ccccc2)cc1)NO` [Compound 157], in test [1], the IC50 came to 2.4 µM.

With `Cc1ccc(NS(=O)(=O)c2ccc(/C=C/C(=O)Nc3ccccc3N)cc2)cc1` [Compound 159], in test [1], the IC50 is 1.5 µM.

As to `Nc1ccccc1NC(=O)/C=C/c1ccc(S(=O)(=O)Nc2ccc(-c3ccccc3)cc2)cc1` [Compound 160], the IC50 in test [1] worked out at 1.2 µM.

For the molecule `Cc1ccc(NS(=O)(=O)c2ccc(/C=C/C(=O)NO)cc2)cc1` [Compound 161], in test [1], the concentration for half-maximal inhibition (IC50) came to 0.05 µM.

`COc1ccc(NS(=O)(=O)c2ccc(/C=C/C(=O)Nc3nnc(S)s3)cc2)cc1OC` [Compound 164]: the IC50 in test [1] came out at 5 µM.

On to `O=C(/C=C/c1ccc(NS(=O)(=O)c2ccc(-c3ccccc3)cc2)cc1)Nc1nnc(S)s1` [Compound 165], for which the IC50 in test [1] was found to be 2 µM.

For the molecule `Nc1ccccc1NC(=O)/C=C/C#Cc1cccc(NS(=O)(=O)c2ccccc2)c1` [Compound 168], the “pooled HDACs percent inhibition” value in test [2] was found to be 0% @ 20 μM.

As for `CN(C)c1ccc(CCc2ccccc2C(=O)NO)cc1` [Compound 173], in test [2], the “pooled HDACs percent inhibition” value was 35% @ 20 μM.

Turning to `O=C(Cc1ccc(CCCc2ccccc2)cc1)NO` [Compound 175], the IC50 in test [2] was above 20 µM.

In the case of `O=C(CCC1CCC(CC(=O)c2ccccc2)O1)NO` (stereo not drawn) [Compound 176], the “pooled HDACs percent inhibition” value in test [2] is on record as 20% @ 20 μM.

With `O=C(CCCc1ccc(C(=O)NO)cc1)c1ccccc1` [Compound 177], in test [2], the “pooled HDACs percent inhibition” value turned out to be 10% @ 20 μM.

For the molecule `Nc1ccccc1NC(=O)c1ccc(CC(=O)c2ccccc2)o1` [Compound 178], the “pooled HDACs percent inhibition” value in test [2] was 2% @ 20 μM.

What is called IC50 is the midpoint of a concentration-inhibition curve.
